PubChem BioAssay AID256 (DTP/NCI, 2004)
Toxic doses and inconclusive results are not listed. How the source made its calls: active means survival T/C of 150% or more; inactive means T/C below 125% in these data.

System: CD2F1 mice, L1210 leukemia ip, survival T/C
Test: NCI In Vivo Anticancer Drug Screen. Data for tumor model L1210 Leukemia (intraperitoneal) in CD2F1 (CDF1) mice
Conditions: higher = longer survival
In short: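 Tumor-bearing mice (transplanted tumor) were split into treated and vehicle control groups, and the measured endpoint of each treated group was divided by that of its vehicle controls.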

[1] = endpoint: mean survival time, dose: 100.0 mg/kg/injection, schedule: Q04DX002 (ip), vehicle: saline with Tween-80
[2] = endpoint: mean survival time, dose: 200.0 mg/kg/injection, schedule: Q04DX002 (ip), vehicle: saline with Tween-80

Measured: T/C

N#[N+]c1cn(C2CC(O)C(CO)O2)c(=O)[nH]c1=O (stereo not given)
inactive: endpoint: mean survival time, dose: 100.0 mg/kg/injection, schedule: Q04DX003 (ip), vehicle: saline with Tween-80 101 % of control | endpoint: mean survival time, dose: 200.0 mg/kg/injection, schedule: Q04DX003 (ip), vehicle: saline with Tween-80 98 % of control | endpoint: mean survival time, dose: 400.0 mg/kg/injection, schedule: Q04DX003 (ip), vehicle: saline with Tween-80 118 % of control

Cc1sc2cc(N)ccc2[n+]1C
inactive: endpoint: mean survival time, dose: 12.5 mg/kg/injection, schedule: Q04DX002 (ip), vehicle: saline with Tween-80 102 % of control | endpoint: mean survival time, dose: 25.0 mg/kg/injection, schedule: Q04DX002 (ip), vehicle: saline with Tween-80 98 % of control | endpoint: mean survival time, dose: 50.0 mg/kg/injection, schedule: Q04DX002 (ip), vehicle: saline with Tween-80 95 % of control | [1] 98 % of control | [2] 109 % of control

O=c1nc(NC2CCCCCCCCCCC2)ccn1C1OC(CO)C(O)C1O (stereo not given)
inactive: endpoint: median survival time, dose: 12.5 mg/kg/injection, schedule: Q01DX005 (ip), vehicle: distilled water + Tween-80 101 % of control | endpoint: median survival time, dose: 25.0 mg/kg/injection, schedule: Q01DX005 (ip), vehicle: distilled water + Tween-80 102 % of control | endpoint: median survival time, dose: 50.0 mg/kg/injection, schedule: Q01DX005 (ip), vehicle: distilled water + Tween-80 105 % of control | endpoint: median survival time, dose: 100.0 mg/kg/injection, schedule: Q01DX005 (ip), vehicle: distilled water + Tween-80 93 % of control | endpoint: median survival time, dose: 200.0 mg/kg/injection, schedule: Q01DX005 (ip), vehicle: distilled water + Tween-80 86 % of control

O=[N+]1C=CC(=NN=c2ccn([O-])cc2)C=C1
inactive: [1] 100 % of control | [2] 96 % of control

O=C(O)C(=O)c1ccccc1
inactive: endpoint: mean survival time, dose: 50.0 mg/kg/injection, schedule: Q01DX009 (ip), vehicle: saline 98 % of control | endpoint: mean survival time, dose: 100.0 mg/kg/injection, schedule: Q01DX009 (ip), vehicle: saline 104 % of control | endpoint: mean survival time, dose: 200.0 mg/kg/injection, schedule: Q01DX009 (ip), vehicle: saline 107 % of control

Cc1ncc(CO)c(C2NOCc3ccc(Cl)cc32)c1O (stereo not given)
inactive: endpoint: mean survival time, dose: 25.0 mg/kg/injection, schedule: Q01DX009 (ip), vehicle: Klucel (hydroxypropylcellulose) (HPC) 96 % of control | endpoint: mean survival time, dose: 50.0 mg/kg/injection, schedule: Q01DX009 (ip), vehicle: Klucel (hydroxypropylcellulose) (HPC) 98 % of control
